Experimental data: patent US20150353495A1 (PORTOLA PHARMACEUTICALS, INC., priority 2010, published 2015)

Tests used:
[1] = biological target: T1, JAK1 (Homo sapiens, UniProt P23458); assay: Z'-LYTE kinase assay JAK1; type: biochemical
T1 construct: 5 μl of catalytic domain recombinant Kinase enzyme+Tyr peptide substrate (Invitrogen, CA); purchased Invitrogen
Outline: (§1)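 Read-out is FRET fluorescence between coumarin and fluorescein on a Tyr6 peptide, lost when the development protease cleaves unphosphorylated substrate. Kinase reaction used recombinant catalytic domain with ATP, 1 h at room temperature, 1% DMSO.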

[2] = biological target: T2, JAK2 (Homo sapiens, UniProt O60674); assay: Z'-LYTE kinase assay JAK2; type: biochemical
T2 construct: 5 μl of catalytic domain recombinant Kinase enzyme+Tyr peptide substrate (Invitrogen, CA); purchased Invitrogen
T2 sequence (O60674 849-1124 limits assumed): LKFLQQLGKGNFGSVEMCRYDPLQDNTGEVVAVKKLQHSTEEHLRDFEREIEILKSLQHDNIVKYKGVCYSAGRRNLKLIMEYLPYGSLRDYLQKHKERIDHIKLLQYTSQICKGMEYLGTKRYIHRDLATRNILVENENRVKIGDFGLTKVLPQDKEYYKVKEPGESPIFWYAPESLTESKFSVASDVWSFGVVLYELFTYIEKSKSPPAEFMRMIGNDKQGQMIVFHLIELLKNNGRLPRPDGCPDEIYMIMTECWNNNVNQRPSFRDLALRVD
Outline: as §1

[3] = biological target: T3, JAK3 (Homo sapiens, UniProt P52333); assay: Z'-LYTE kinase assay JAK3; type: biochemical
T3 construct: 5 μl of catalytic domain recombinant Kinase enzyme+Tyr peptide substrate (Invitrogen, CA); purchased Invitrogen
T3 sequence (P52333 822-1111 limits assumed): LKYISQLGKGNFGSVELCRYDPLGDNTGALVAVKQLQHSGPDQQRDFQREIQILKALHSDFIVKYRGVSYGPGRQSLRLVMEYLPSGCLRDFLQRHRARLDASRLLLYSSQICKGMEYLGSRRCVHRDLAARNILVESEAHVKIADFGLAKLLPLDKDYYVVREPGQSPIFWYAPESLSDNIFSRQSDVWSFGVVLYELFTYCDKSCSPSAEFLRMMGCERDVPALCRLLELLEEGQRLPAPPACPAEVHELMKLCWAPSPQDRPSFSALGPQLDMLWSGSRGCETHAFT
Outline: as §1

[4] = biological target: T4, TYK2 (Homo sapiens, UniProt P29597); assay: Z'-LYTE kinase assay TYK2; type: biochemical
T4 construct: 5 μl of catalytic domain recombinant Kinase enzyme+Tyr peptide substrate (Invitrogen, CA); purchased Invitrogen
T4 sequence (P29597 897-1176 limits assumed): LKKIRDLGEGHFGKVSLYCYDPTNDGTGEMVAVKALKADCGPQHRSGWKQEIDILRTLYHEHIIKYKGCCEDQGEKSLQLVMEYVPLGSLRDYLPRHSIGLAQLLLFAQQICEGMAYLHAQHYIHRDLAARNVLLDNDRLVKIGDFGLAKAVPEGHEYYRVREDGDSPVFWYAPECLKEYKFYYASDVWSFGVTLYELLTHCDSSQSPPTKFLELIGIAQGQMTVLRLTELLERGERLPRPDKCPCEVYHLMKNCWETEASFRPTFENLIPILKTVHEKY
Protocol: JAK and TYK2 tyrosine phosphorylation activity is measured using the Z′-LYTE™ Technology developed by Invitrogen Corporation (Carlsbad, Calif.). For JAK1, JAK2 and JAK3 the Z′-LYTE™ Kinase Assay Kit-Tyr6 Peptide (part number PV4122) was used. For TYK2 the Z′-LYTE™ Kinase Assay Kit-Tyr6 Peptide (part number PV3192) was used. The Z′-LYTE™ biochemical assay employs a fluorescence resonance energy transfer (FRET) coupled-enzyme format and is based on the differential sensitivity of phosphorylated and non-phosphorylated peptides to proteolitic cleavage. The assay uses a synthetic peptide substrate that is labelled with a donor fluorophore (coumarin) and an acceptor fluorophore (fluorescein) that make up a FRET pair. In the primary reaction (the Kinase Reaction), the kinase transfers the γ-phosphate of ATP to a single tyrosine residue on the substrate, while the presence of a kinase inhibitor in the primary reaction suppresses phosphorylation. In the secondary reaction (the Development Reaction), a site-specific protease (the Development Reagent) is added. The development buffer quenches the Kinase Reaction, while the protease recognizes and cleaves non-phosphorylated Z′-LYTE™ peptide substrate. Cleavage disrupts FRET between the donor and acceptor fluorophores on the non-phosphoryleted substrate, while uncleaved, phosphorylated substrate maintains FRET.
To test the ability of candidate molecules to inhibit JAK tyrosine phosphorylation activity, molecules are reconstituted in 100% DMSO and serially diluted 1:10 in polypropylene v-bottom microtiter plates. The candidate molecules are then diluted 1:25 into kinase buffer and 2.5 μl transferred into duplicate wells of a 384 well low volume black microtiter assay plate (Corning, USA). The final DMSO concentration in the assay is 1%. The kinase reaction contains 2.5 μl of a candidate molecule, 5 μl of catalytic domain recombinant Kinase enzyme+Tyr peptide substrate (Invitrogen, CA) and 2.5 μl ATP (Invitrogen, CA). The kinase reaction is allowed to procede for 1 hour at room temperature. The protease reaction is initiated by the addition of 5 μl Development Reagent (Invitrogen, CA). After 1 hour incubation at room temperature the fluorescence is measured using a FlexStation plate reader (Molecular Devices, Sunnyvale, Calif.). The reader settings used are as follows: Fluorescence mode, endpoint, top read, excitation 400 nm, emission 445 nm and 520 nm, Auto Cutoff 435 nm and 515 nm, PMT sensitivity high, 6 reads per well Inhibition of JAK kinase activity is calculated as the percent phosphorylation of substrate in the presence of inhibitor compared to the percent phosphorylation of substrate in the absence of inhibitor. IC50's were derived using Xlfit 4.3 (IDBS, UK), 4 parameter logistic model 205: Y=(A+4B-A)/(1+((C/x)AD)))).

[5] = tested on: JAK1/3 signaling to STAT6 in Ramos B cells; assay: IL4 stimulation of JAK1/3 signaling to STAT6 in Ramos B cells (pSTAT6 Y641, FACS); type: cell-based; details: Homo sapiens; for inhibition at 0.2 µM: 0.2 uM compound, read-out: IL-4/STAT6 in Ramos Percent Inhibition at 0.2 uM; for inhibition at 1 µM: 1.0 uM compound, read-out: IL-4/STAT6 in Ramos Percent Inhibition at 1.0 uM
Protocol: IL4 stimulation of JAK1/3 signaling to STATE in Ramos B cells:
As an alternative strategy to measure effect of JAK3 inhibitors on JAK1/3 dependent cytokine signaling pathways, IL4 stimulation of the Ramos Burkett's B cell line is used. IL4 engages a receptor consisting of the IL4 receptor alpha chain and the common gamma chain. […] Ramos B cells are suspended in tissue culture media containing 10% fetal calf serum at 10×10̂6 cells/ml. 100 μl aliquots are pre-treated for 1 hour with various concentrations of compound, and then stimulated for 15 minutes with 15 ng IL4. The signaling reaction is terminated by fixing in 2% paraformaldehyde for 10 minutes at room temperature. Fixed cells are then washed and permeablized by suspension in 100% methanol at −80° C. Following overnight incubation at 4° C., cells are washed and resuspended in PBS containing 0.5% bovine serum albumin containing pSTAT6 Y641-PE conjugated antibody. After 1 hour incubation, cells are washed and the extent of STAT6 phosphorlyation in Ramos cells is measured by FACS analysis.

T1 sequence (P23458 875-1153 limits assumed): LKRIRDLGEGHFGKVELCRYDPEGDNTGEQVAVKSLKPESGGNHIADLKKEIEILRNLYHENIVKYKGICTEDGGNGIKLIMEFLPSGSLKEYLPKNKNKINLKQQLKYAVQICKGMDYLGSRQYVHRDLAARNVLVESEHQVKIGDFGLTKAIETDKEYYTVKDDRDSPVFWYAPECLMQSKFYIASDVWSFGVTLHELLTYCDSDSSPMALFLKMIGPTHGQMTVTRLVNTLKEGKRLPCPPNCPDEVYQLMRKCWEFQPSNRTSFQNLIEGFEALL

Row | Compound | IC50 [1] [nM] | IC50 [2] [nM] | IC50 [3] [nM] | IC50 [4] [nM] | inhibition at 0.2 µM [5] [%] | inhibition at 1 µM [5] [%]
1 | CN(C)C(=O)COc1cccc(Nc2cc(NC3(c4ccccc4)CC3)c(C(N)=O)cn2)c1 [Example 365, 6-(3-(2-(dimethylamino)-2-oxoethoxy)phenylamino)-4-(1-phenylcyclopropylamino)nicotinamide] | > 1000 | > 1000 | 10 to 100 | > 1000 | – | –
2 | CC(=O)N1CCN(c2ccc(Nc3cc(NCC4CC4)c(C(N)=O)cn3)cc2)CC1 [Example 238, 6-(4-(4-acetylpiperazin-1-yl)phenylamino)-4-(cyclopropylmethylamino)nicotinamide] | > 1000 | 100 to 1000 | 100 to 1000 | 100 to 1000 | – | –
3 | COc1cc(Nc2cc(NCc3ccccc3)c(C(N)=O)cn2)ccc1C(=O)N(C)C [Example 436, 4-(benzylamino)-6-(4-(dimethylcarbamoyl)-3-methoxyphenylamino)nicotinamide] | > 1000 | 100 to 1000 | 1 to 10 | 100 to 1000 | – | –
4 | NC(=O)c1cnc(Nc2cccc(OCCN3CCCC3)c2)cc1NC1(c2ccccc2)CC1 [Example 363, 4-(1-phenylcyclopropylamino)-6-(3-(2-(pyrrolidin-1-yl)ethoxy)phenylamino)nicotinamide] | > 1000 | 100 to 1000 | 10 to 100 | > 1000 | – | –
5 | NC(=O)c1cnc(Nc2ccc3c(c2)NC(=O)CO3)cc1NCc1ccccc1 [Example 84, 4-(benzylamino)-6-(3-oxo-3,4-dihydro-2H-benzo[b][1,4]oxazin-6-ylamino)nicotinamide] | > 1000 | 100 to 1000 | 10 to 100 | – | 3 | 8
6 | CN(C)C(=O)c1ccc(Nc2cc(NCc3c(F)cccc3F)c(C(N)=O)cn2)cc1 [Example 102, 4-(2,6-difluorobenzylamino)-6-(4-(dimethylcarbamoyl)phenylamino)nicotinamide] | 100 to 1000 | 10 to 100 | 1 to 10 | 10 to 100 | – | –
7 | NC(=O)c1cnc(Nc2cccc(NC(=O)N3CCOCC3)c2)cc1NCc1cccnc1 [Example 232] | – | – | – | – | 4 | 5
8 | CS(=O)(=O)N1CCC(c2ccc(Nc3cc(NCc4ccccc4F)c(C(N)=O)cn3)cc2)CC1 [Example 111, 4-(2-fluorobenzylamino)-6-(4-(1-(methylsulfonyl)piperidin-4-yl)phenylamino)nicotinamide] | > 1000 | > 1000 | 10 to 100 | – | 22 | 46
9 | CN(C)C(=O)N1CCC(c2ccc(Nc3cc(NCc4ccccc4F)c(C(N)=O)cn3)cc2)CC1 [Example 114, 6-(4-(1-(dimethylcarbamoyl)piperidin-4-yl)phenylamino)-4-(2-fluorobenzylamino)nicotinamide] | > 1000 | 100 to 1000 | 10 to 100 | – | 14 | 51
10 | COc1ccc(Nc2cc(NCc3cc(F)ccc3F)c(C(N)=O)cn2)cc1 [Example 83, 4-(2,5-difluorobenzylamino)-6-(4-methoxyphenylamino)nicotinamide] | 100 to 1000 | 100 to 1000 | 10 to 100 | – | 10 | 23
11 | NC(=O)c1cnc(Nc2ccccc2)cc1NCc1ccccc1 [Example 9, 4-(benzylamino)-6-(phenylamino)nicotinamide] | > 1000 | > 1000 | – | > 1000 | – | –
12 | COc1ccc(Nc2cc(NCc3c(F)cccc3F)c(C(N)=O)cn2)cc1 [Example 82, 4-(2,6-difluorobenzylamino)-6-(4-methoxyphenylamino)nicotinamide] | 100 to 1000 | 100 to 1000 | 10 to 100 | – | 7 | 34
13 | NC(=O)c1cnc(Nc2cccc(OCCN3CCOCC3)c2)cc1NC(CO)c1ccccc1 (stereo not shown) [Example 230] | – | – | – | – | 21 | 36
14 | NC(=O)c1cnc(Nc2cccc(N3CCCCC3)c2)cc1NCc1cccc(F)c1 [Example 68, 4-(3-fluorobenzylamino)-6-(3-(piperidin-1-yl)phenylamino)nicotinamide] | > 1000 | 100 to 1000 | 10 to 100 | – | – | 7
15 | CC(C)N1CCC(c2ccc(Nc3cc(NCc4ccccc4F)c(C(N)=O)cn3)cc2)CC1 [Example 108, 4-(2-fluorobenzylamino)-6-(4-(1-isopropylpiperidin-4-yl)phenylamino)nicotinamide] | 100 to 1000 | 10 to 100 | 1 to 10 | – | 14 | 37
16 | CC(=O)N1CCN(c2ccc(Nc3cc(NC(CO)c4ccccc4)c(C(N)=O)cn3)cc2)CC1 (stereo not shown) [Example 231] | – | – | – | – | 13 | 16
17 | CCS(=O)(=O)N1CCC(c2ccc(Nc3cc(NCc4ccccc4F)c(C(N)=O)cn3)cc2)CC1 [Example 112, 6-(4-(1-(ethylsulfonyl)piperidin-4-yl)phenylamino)-4-(2-fluorobenzylamino)nicotinamide] | > 1000 | > 1000 | 10 to 100 | – | 8 | 42
18 | COc1ccc(Nc2cc(NCc3cccc(F)c3)c(C(N)=O)cn2)cc1 [Example 91, 4-(3-fluorobenzylamino)-6-(4-methoxyphenylamino)nicotinamide] | > 1000 | 100 to 1000 | 10 to 100 | – | 6 | 16
19 | NC(=O)c1cnc(Nc2cccc(C3CCN(C4CCCC4)CC3)c2)cc1NCc1ccccc1F [Example 110, 6-(3-(1-cyclopentylpiperidin-4-yl)phenylamino)-4-(2-fluorobenzylamino)nicotinamide] | 100 to 1000 | 10 to 100 | 1 to 10 | – | 24 | 68
20 | NC(=O)c1cnc(Nc2cccc(N3CCCCC3)c2)cc1N[C@H](CO)c1ccccc1 [Example 76, (S)-4-(2-hydroxy-1-phenylethylamino)-6-(3-(piperidin-1-yl)phenylamino)nicotinamide] | > 1000 | > 1000 | 10 to 100 | – | 8 | 20
21 | NC(=O)c1cnc(Nc2ccc(C(=O)N3CCC3)cc2)cc1NCc1cc(F)ccc1F [Example 93, 6-(4-(azetidine-1-carbonyl)phenylamino)-4-(2,5-difluorobenzylamino)nicotinamide] | 10 to 100 | 10 to 100 | 1 to 10 | – | 43 | 76
